Measured values reported in publication PMC3125149, “SCYX-7158, an Orally-Active Benzoxaborole for the Treatment of Stage 2 Human African Trypanosomiasis” (PLoS Neglected Tropical Diseases, 2011).
Converted amounts (≈) assume the structure as drawn. Read-outs that look alike come from different tables or passages of the source.

How the values were obtained:
[1] = Brain tissue binding by rapid equilibrium dialysis; type: in vitro ADME; details: mouse brain tissue; independent of concentration
Experimental: Binding to human or mouse plasma proteins or mouse brain homogenate was determined by rapid equilibrium dialysis (RED) (Pierce, Rockford, IL) using a 48-well plate-based format according to the manufacturer's instructions. Briefly, test compound at the required concentrations was added to fresh human or mouse plasma (Bioreclamation, Liverpool, NY) or freshly prepared mouse brain homogenate. Duplicate aliquots of each sample were transferred into the sample chambers of the RED devices, and dialysis buffer (BupH PBS) was added to the buffer chambers. The plates were sealed and incubated at 37°C for 4 h. After dialysis, samples collected from the buffer and tissue chambers were treated with ice-cold methanol (3 volumes for plasma, 4 volumes for brain) to precipitate proteins. The treated samples were centrifuged for 10 min at 3×10^3 g at 15°C. The supernatants were assayed for test compound by LC-MS/MS. Calibration standards and quality control samples were prepared in matched matrix and assayed with samples. Values for unbound and bound fractions and mass balance were calculated. Concordance of binding for each batch of plasma was confirmed by assay of warfarin, imipramine and carbamezapine. Acceptance criterion for mass balance was 70–120%.

[2] = tested on: >100 biochemical targets; assay: Array of in vitro receptor binding and enzyme inhibition assays; details: test concentration 10 µM
[3] = Aqueous solubility; type: physicochemical; details: pH 7.4 PBS
Text: (§1) Table 3 In vitro physicochemical and ADME properties of SCYX-7158. | column: Value

[4] = Pharmacokinetics in uninfected mice; type: in vivo, mouse
[5] = Pharmacokinetics in uninfected rats; type: in vivo, rat; details: male, Sprague-Dawley, rat
Experimental: The blood distribution, CNS disposition and pharmacokinetics of SCYX-7158 were evaluated in infected or non-infected rodents following intravenous or oral administration of compounds. Pharmacokinetics and bioavailability of SCYX-7158 were also evaluated in non-infected beagle dogs and cynomolgus monkeys. In-life phases of non-infected rodent studies were performed at Vivisource (Waltham, MA); studies in non-naïve cynomolgus monkeys were performed by SNBL USA (Everett, WA). Male CD-1 mice (∼25 g), male Sprague-Dawley rats (∼225 g), or male cynomolgus monkeys (∼3–5 kg) were administered test article by either bolus intravenous injection (IV) or oral gavage. Animals in the IV groups received a single 2 mg/kg IV dose. Animals received oral doses of test articles as either single or twice daily doses ranging from 8 mg/kg to 50 mg/kg. All doses were administered as clear colorless solutions in either 50% (v/v) PEG 400: 20% (v/v) ethanol: 30% (v/v) carboxymethylcellulose (0.5% w/v in sterile water for injection) or 2% (v/v) ethanol: 5% (w/v) dextrose in sterile water for injection. […] For pharmacokinetic analysis, blood samples were collected from mice via cardiac puncture under terminal anaesthesia. Serial blood samples were collected from rats via a vascular access port located in the lateral saphenous vein. Mice and rats were euthanized in a CO2 chamber before collection of terminal blood samples or brain tissue. Blood samples were collected into polypropylene tubes containing K2EDTA anticoagulant and stored on ice until centrifuged for the preparation of plasma. Plasma was stored at −70°C. Whole brains were collected following decapitation, blotted dry, placed into polypropylene containers and then immediately frozen at approximately −70°C. CSF was collected from rats via cisterna magna puncture, placed in sterile polypropylene tubes, and stored at approximately −70°C. […] Treated samples were gently mixed at room temperature for 10 min, and then centrifuged at approximately 3000×g for 15 min at 15°C. The supernatants were transferred to 96-well plates or HPLC vials for analysis by LC-MS/MS. Pharmacokinetic parameters were calculated from composite mean plasma or tissue data using non-compartmental (oral and intravenous routes) and bi-exponential (intravenous route) analyses in Microsoft Excel.

[6] = target: T1, hERG channel expressed in HEK-293 cells (Homo sapiens, UniProt Q12809); assay: hERG whole-cell patch clamp; type: cell-based
T1 construct: expressed in transfected cells; host or cells: HEK-293
T1 sequence (Q12809 whole entry): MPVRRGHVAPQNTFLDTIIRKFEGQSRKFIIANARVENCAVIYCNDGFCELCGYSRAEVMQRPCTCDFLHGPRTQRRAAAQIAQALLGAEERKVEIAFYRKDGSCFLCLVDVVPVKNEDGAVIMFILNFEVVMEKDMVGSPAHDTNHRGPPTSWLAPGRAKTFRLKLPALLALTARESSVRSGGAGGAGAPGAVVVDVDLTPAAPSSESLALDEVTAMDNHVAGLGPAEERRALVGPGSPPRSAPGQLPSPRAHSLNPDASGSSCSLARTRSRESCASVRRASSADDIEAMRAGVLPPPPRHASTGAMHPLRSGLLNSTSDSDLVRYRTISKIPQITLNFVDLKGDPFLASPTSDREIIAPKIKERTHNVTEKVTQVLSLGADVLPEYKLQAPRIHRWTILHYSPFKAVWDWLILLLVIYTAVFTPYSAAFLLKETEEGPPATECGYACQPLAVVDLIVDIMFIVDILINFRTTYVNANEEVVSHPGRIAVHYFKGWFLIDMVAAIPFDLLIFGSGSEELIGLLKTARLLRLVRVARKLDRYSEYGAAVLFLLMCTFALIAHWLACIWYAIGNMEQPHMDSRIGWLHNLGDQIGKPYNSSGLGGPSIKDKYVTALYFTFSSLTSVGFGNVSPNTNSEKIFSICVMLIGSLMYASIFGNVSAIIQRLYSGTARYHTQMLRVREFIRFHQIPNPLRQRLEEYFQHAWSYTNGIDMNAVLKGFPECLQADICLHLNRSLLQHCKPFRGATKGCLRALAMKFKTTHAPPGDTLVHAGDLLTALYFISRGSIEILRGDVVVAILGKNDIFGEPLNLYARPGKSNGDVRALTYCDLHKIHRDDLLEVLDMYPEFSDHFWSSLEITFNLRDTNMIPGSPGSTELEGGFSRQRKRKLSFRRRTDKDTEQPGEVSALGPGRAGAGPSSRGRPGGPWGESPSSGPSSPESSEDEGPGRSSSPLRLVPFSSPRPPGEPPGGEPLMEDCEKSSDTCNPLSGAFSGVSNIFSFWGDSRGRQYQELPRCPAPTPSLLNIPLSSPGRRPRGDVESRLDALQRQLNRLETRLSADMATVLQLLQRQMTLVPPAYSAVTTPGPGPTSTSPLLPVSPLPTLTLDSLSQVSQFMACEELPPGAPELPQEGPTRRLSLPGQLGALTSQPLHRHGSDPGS

[7] = tested on: T. b. brucei EATRO 110 strain; assay: Efficacy in the mouse model for acute HAT; type: in vivo
Experimental: For efficacy studies against acute infections, groups of 3–5 female Swiss Webster mice (Ace Animals, Boyertown, PA) were injected intraperitoneally (i.p.) with freshly drawn infected rat blood containing 2.5×10^5 trypanosomes (T. b. brucei EATRO 110 strain). The infection was allowed to progress for 24 h before treatment. Test compound was then given daily by bolus i.p. injection or oral gavage. Oxaborole compounds were formulated in 2% ethanol/5% dextrose and were given at a dose volume of 200 µL (containing 1.25 to 50 mg/kg) for a 25 g animal. Animals were monitored daily for signs of compound toxicity and clinical signs of trypanosomiasis for a period of 30 days. Mice were checked for parasitemia once per week by microscopic examination of smears prepared from the tail vein blood of animals. Animals remaining parasite free for more than 30 days beyond the end of the treatment period were considered cured. Control untreated animals typically succumbed to the infection within 4–5 days following i.p. inoculation with parasites.

[8] = Lipophilicity; type: physicochemical
Text: as §1

## CC1(C)OB(O)c2cc(NC(=O)c3ccc(F)cc3C(F)(F)F)ccc21 [SCYX-7158]
[1]
  fubrain: ~5%
[2]
  binding to or inhibition of off-target panel: did not exhibit any significant binding to, or inhibition of
[3]
  solubility: 25 µM (≈ 9.18 µg/mL)
[4]; 4.3 mg/kg intravenous, brain
  brain AUC0–24 h: 5.57 µg·h/mL
[4]; male, CD-1, mouse, plasma, 4.3 mg/kg intravenous, read-out: systemic clearance (CL) (converted)
  clearance: 1.48 mL/min/kg
[4]; male, CD-1, mouse, plasma, 4.3 mg/kg intravenous, read-out: volume of distribution (Vdss)
  Vd: 1.69 L/kg
[4]; male, CD-1, mouse, oral dose of 56 mg/kg SCYX-7158, plasma
  Cmax: 18000 ng/mL
[5]; brain/plasma, 25 mg/kg oral, read-out: brain to plasma AUC0–24 h ratio
  Kp: 0.44
[5]; plasma, 25 mg/kg oral
  CL/F: 1.53 mL/min/kg
[5]; 25 mg/kg oral (nominal), plasma, read-out: Cmax
  Cmax: 18200 ng/mL
[5]; 25 mg/kg oral, CSF, read-out: AUC0–24 h in the CSF
  AUC(0-t): 14.6 µg·h/mL
[5]; 25 mg/kg oral, CSF, read-out: Cmax in the CSF
  Cmax: 1080 ng/mL
[5]; 25 mg/kg oral, brain, read-out: AUC0–24 h in the brain
  AUC(0-t): 129 µg·h/mL
[5]; 25 mg/kg oral, brain, read-out: Cmax in the brain
  Cmax: 8500 ng/mL
[5]; 25 mg/kg oral, plasma
  Tmax: 8 h
[5]; 25 mg/kg oral, plasma, read-out: AUC0–24 h
  AUC(0-t): 291 µg·h/mL
[5]; oral dose of 10 mg/kg SCYX-7158, plasma, read-out: Cmax
  Cmax: 14300 ng/mL
[6]; 30 µM
  mean fractional block: 0.108±0.037
[6]; 100 µM
  mean fractional block: 0.198±0.018
[6]; indicated by patch clamp fractional block
  IC50: > 100 µM
[7]; 1.25 mg/kg BID, 4 days, PO
  % Cured: 0%
  Avg. Days Parasite-Free: 8 days
  Cured/Total: 0/5
[7]; 1.25 mg/kg QD, 4 days, PO
  % Cured: 0%
  Avg. Days Parasite-Free: 4.4 days
  Cured/Total: 0/5
[7]; 2.5 mg/kg BID, 4 days, PO
  % Cured: 100%
  Avg. Days Parasite-Free: >30 days
  Cured/Total: 5/5
[7]; 2.5 mg/kg QD, 4 days, PO
  % Cured: 0%
  Avg. Days Parasite-Free: 8.4 days
  Cured/Total: 0/5
[7]; 5 mg/kg BID, 4 days, PO
  % Cured: 100%
  Avg. Days Parasite-Free: >30 days
  Cured/Total: 5/5
[7]; 5 mg/kg QD, 1 day, IP
  % Cured: 0%
  Avg. Days Parasite-Free: 6 days
  Cured/Total: 0/3
[7]; 5 mg/kg QD, 4 days, PO
  % Cured: 100%
  Avg. Days Parasite-Free: >30 days
  Cured/Total: 5/5
[7]; 10 mg/kg BID, 4 days, PO
  % Cured: 100%
  Avg. Days Parasite-Free: >30 days
  Cured/Total: 5/5
[7]; 10 mg/kg QD, 1 day, IP
  % Cured: 0%
  Avg. Days Parasite-Free: 9.3 days
  Cured/Total: 0/3
[7]; 10 mg/kg QD, 4 days, PO
  % Cured: 100%
  Avg. Days Parasite-Free: >30 days
  Cured/Total: 5/5
[7]; 25 mg/kg QD, 1 day, IP
  % Cured: 100%
  Avg. Days Parasite-Free: >30 days
  Cured/Total: 3/3
[7]; 25 mg/kg QD, 1 day, PO
  % Cured: 33%
  Avg. Days Parasite-Free: 8.3 days
  Cured/Total: 1/3
[8]
  logD: 3.51
